Reference: patent US20240269109A1 (STICHTING MEDISCHE KLINIEK VELSEN, priority 2021, published 2024)

Tests used:
[1] = off-label patient trial, oromucosal/sublingual formulation; type: in vivo, human
Procedure: The formulation of the invention was used “off-label” to treat a number of patients to determine its effect as set out in Example 2.
In the Netherlands, 22 patients were treated with the formulation of Example 1a as follows: […]
10 patients had COVID-19 symptoms (and were positive and were seen by their general practitioner). All 10 patients presented with early signs of respiratory distress; tachypnea (more than 30 breaths per minute), high fever and dry cough and a decreased Sp02<90.
6 patients had post-COVID respiratory complaints. They were experiencing long-term complaints, ranging from coughing, fatigue and shortness of breath to anxiety and physical limitations.
6 patients suffered with various autoimmune diseases as follows: • 1 patient had rheumatoid arthritis. • 1 patient had scleroderma; • 1 patient had dermatomyositis; • 1 patient had morbus Parkinson; • 2 patients had psoriasis.
All patients were given the formulation as described in Example 1a above, up to 6 times a day, for up to 2 weeks.

[2] = high doses for local anesthesia; cited from earlier work

## CCN(CC)CC(=O)Nc1c(C)cccc1C [lidocaine]
[1]; 10 patients, sublingual
  response of COVID-19 patients with early signs of respiratory distress: responded well
[1]; delivered oromucosally or sublingually, 4-6 times a day
  effective adult unit dose: 60 to 100 mg
[2]
  dose at which methemoglobinemia can occur: 4-5 mg/kg bodyweight
